Data reported in patent publication US6593137B1, “Antibodies specific for fullerenes” (The Trustees of Columbia University in the City of New York, priority 1999, dated 2003).
Each block holds one compound with its values, some of them ahead of it.

Key:
[1] = tested on: human keratinocytes and fibroiblasts; settings: cited from earlier work
Sprague-Dawley rats = assay: γ-camera imaging study; format: in vivo; settings: IP
Protocol: The biodistribution in mice of hydroxylated lanthanide-C82 encapsulates is under current investigation. The results presented here are regarded as preliminary as the sample is still small. Studies continue under a NIH Phase I grant. The neutron irradiated samples, along with a ^166Ho^3+ control sample, were used to perform a γ-camera imaging study on four 300 g Sprague-Dawley rats. Two rats were injected intraperitoneally (IP) with 54 and 18 μCi of ^166Ho activity from samples containing irradiated Ho-metallofullerois. Two control studies were performed by IP administration of approximately 660 μCi of ^166Ho^3+ in a 1% sodium citrate buffer. The anesthetized rats were scanned side-by-side on a single stage with a γ-camera starting 1 hour after injection and periodically thereafter over the ensuing 48 hours.

Air sensitivity = format: physicochemical
Excerpt: While previous work reported in the literature performed HPLC under aerobic conditions, (see for example Funasaka et al. 1995) these studies determined that anaerobic controls better preserved the fraction of Gd@C82 in solution. […] The fraction containing the Gd@C82 was identified using MS. The solubility of fullerenes in o-xylene is about three times that of toluene and this greatly increases the ratio of fullerenes in solution to those retained on the stationary phase. Therefore, the capacity or amount of fullerenes purified per injection was very large. Each injection contained 2 ml of saturated fullerene o-xylene solution (about 30 mg of fullerenes).

[2] = tested on: anti-fullerene antibodies; assay: ELISA competitive inhibition of antibody binding to 1-RSA; parameters: species or system BALB/c mice
Protocol: After a total of three immunizations at 3-week intervals, confirmation of an immune response was determined by direct ELISA in which polystyrene plates (Corning) were coated with the 1-RSA conjugate (0.5 mg/ml in 0.1 M NaHCO3, pH 9), and binding of preimmune and immune sera were determined by standard procedures. Development was with horseradish peroxidase-labeled goat anti-mouse IgG (Sigma), which tested negative for crossreaction with an IgM preparation. The substrate used was o-phenylenediamine.
(§1) Specificity of the resp)onse was determined by two procedures: double diffusion in agar (22) and competitive inhibition, as determined by ELISA using RSA and BSA conjugates of the fullerenes, as well as the oligo lysine derivatives. The fullerenes themselves were not soluble enough in aqueous solutions.
The adenosine conjugate had been synthesized using the same strategy used for the fullerenes, i.e., linkage to the epsilon amino groups of the lysines via an N-hydroxysuccinimide ester derivative.

[3] = tested on: anti-fullerene antibodies; assay: Double diffusion in agar; format: binding, BALB/c mice
Protocol: Immunization Procedure and Detection of Antibodies. BALB/c mice were immunized i.p. with 1-TG in complete Freund's adjuvant for the primary immunization and incomplete adjuvant for subsequent immunizations.
as §1
Specificity of the response was determined by two procedures: Double diffusion in agar and competitive inhibition, as determined by ELISA using RSA and BSA conjugates of the fullerenes, as well as the oligo lysine derivatives. The fullerenes themselves were not soluble enough in aqueous solutions.

Compound: c12c3c4c5c1c1c6c7c2c2c8c3c3c9c4c4c%10c5c5c1c1c6c6c%11c7c2c2c7c8c3c3c8c9c4c4c9c%10c5c5c1c1c6c6c%11c2c2c7c3c3c8c4c4c9c5c1c1c6c2c3c41 [Compound C60, fullerene-C60]
effect on rate of thymidine uptake [1]: no effect

Compound: [166Ho+3] [^166Ho^3+]
excretion of 166Ho activity (Sprague-Dawley rats; after 24 hours): essentially all ^166Ho activity had been excreted
urinary clearance (Sprague-Dawley rats; commencing 1 hour post-injection): rapid ^166Ho^3+ urinary clearance

Compound: Gd@C82(OH)x
air sensitivity (Air sensitivity): does not appear to be air sensitive

inhibition of antibody binding to 1-RSA [2]: No inhibition
Compound: Rabbit Serum Albumin [RSA]

inhibition of antibody binding to 1-RSA [2]: No inhibition
Compound: bovine thyroglobulin [TG]
precipitation with immune serum in double diffusion in agar ([3]; TG solution diluted 5-fold): a line of precipitation was seen
precipitation with immune serum in double diffusion in agar ([3]; serum of mice immunized with 1-TG): no visible precipitate
